pIC50: −log10 of the molar value.
How the values were obtained:
[1] = biological target: T1, CtBP1/CtBP2 heterodimer (Homo sapiens, UniProt P56545+Q13363); assay: acceptor photobleaching FRET of CtBP1/CtBP2 dimerization in MDA-MB-231 cells; type: cell-based; settings: 10 μM compound; live-cell heterodimerization read-out
T1 construct: CFP/YFP fusions of CtBP1 and CtBP2 (pSCFP3A, pSYFP2); heterodimer

[2] = biological target: T1, CtBP1/CtBP2 heterodimer; assay: as above; type: cell-based; settings: live-cell heterodimerization read-out; dose-response

## O=C(O)C(=O)Nc1ccccc1 [CI22]
[1]
  FRET signal decrease at 10 μM: significant decrease in the paired CtBP1-YFP/CtBP2-CFP FRET signal, after incubation with CI19, CI22, CI23 or CI24

## CC(C)C(NC(=O)C(=O)O)C(=O)O (stereo not drawn) [CI19]
[1]
  FRET signal decrease at 10 μM: significant decrease in the paired CtBP1-YFP/CtBP2-CFP FRET signal, after incubation with CI19, CI22, CI23 or CI24

## Nc1nc(C(=O)C(=O)O)cs1 [CI24]
[2]
  pIC50: 4.70 to 5.00
